# Literature values as cited in patent US20070232589A1, “Pharmaceutical Composition And Method For Treating Neurodegenerative Disorders” (Myriad Genetics, Incorporated, priority 2004, published 2007).
# Read-outs that look alike come from different tables or passages of the source.
# Assays:
# [1] = in vivo
# [2] = clinical trial; rofecoxib 25 mg daily
# [3] = in vivo excitotoxic model
# [4] = patients having mild cognitive impairment
# Aβ42 [5] = conditions: transgenic mouse model
# Aβ42 [6] = conditions: CHO cells
# [7] = 50 mg and 100 mg doses, human subjects
smiles,measurement,setting,value
CC12CC3CC(C)(C1)CC(N)(C3)C2 [memantine],efficacy in treating mild-to-moderate AD,[1],showed efficacy
COc1ccc2cc([C@H](C)C(=O)O)ccc2c1 [Naproxen],efficacy for treating AD,[2],failed to show efficacy
CS(=O)(=O)c1ccc(C2=C(c3ccccc3)C(=O)OC2)cc1 [rofecoxib],efficacy for treating AD,[2],failed to show efficacy
same,neuroprotection,[3],provides neuroprotection
same,prevention of development of Alzheimer's disease,[4],failed to prevent the development of Alzheimer's disease
same,patients who developed AD,[4]; placebo 4.5%,6.4%
C[C@@H](C(=O)O)c1ccc(-c2ccccc2)c(F)c1 [(R)-2-(2-fluoro-4-biphenylyl)propionic acid],inhibition of COX activity,COX,negligibly inhibits COX activity
same,Aβ42 lowering,Aβ42 [5],lower Aβ42
same,Aβ42 lowering,Aβ42 [6],lower Aβ42
same,analgesic effect,[7],produced an analgesic effect
